Experimental data: paper PMC5344293, “A phase 1 dose-escalation and expansion study of binimetinib (MEK162), a potent and selective oral MEK1/2 inhibitor” (British Journal of Cancer, 2017)

Assay: Phase 1 safety: adverse events
Type: in vivo, human
Experimental: All patients underwent a complete medical history and physical examination, assessment of ECOG performance status and vital signs, and laboratory analysis of haematology, coagulation, clinical chemistry, and urine. Three serial resting and supine 12-lead electrocardiograms were conducted over 5–10 min and cardiac ejection fraction was assessed by echocardiogram or MUGA. In addition, a complete ophthalmologic examination (including visual acuity; fundoscopy and tonometry; optical coherence tomography; and slit-lamp, lens, vitreous, and fluorescence dye examinations) was performed on each patient. These assessments were repeated throughout study participation and/or as clinically indicated. Adverse events were reviewed on an ongoing basis.
Adverse events and serious AEs (SAEs) were coded by preferred term (PT) and system organ class using the Medical Dictionary for Regulatory Activities version 12.0. The severity of AEs was assessed by investigators using the National Cancer Institute Common Terminology Criteria for Adverse Events version 3.0. Two AEs of special interest were captured under the composite terms of ‘combined rash' and ‘combined ocular events.' The ‘combined rash' term included the PTs of dermatitis acneiform, acne, skin exfoliation, and any term containing ‘rash'. The ‘combined ocular events' term included the PTs of retinal deposits, retinopathy, papilloedema, chorioretinopathy, macular oedema, retinal detachment, and retinal disorder.
All patients who received ⩾1 dose of binimetinib were included in the safety analysis. Patients in the safety analysis who had ⩾1 measurable lesion at baseline and at least 1 post-baseline disease assessment were evaluable for efficacy. Kaplan–Meier estimates of progression-free survival (PFS) and overall survival (OS) were performed for patients in the expansion phase ([Kaplan and Meier, 1958]) using SAS Version 9.2 (SAS Institute Inc., Cary, NC, USA).

[1] = AEs regardless of causality, N=93

With `Cn1cnc2c(F)c(Nc3ccc(Br)cc3F)c(C(=O)NOCCO)cc21` [binimetinib] the Anaemia (80 mg BID (n=4), Gr 1/2) was 0 (0) n (%), the Anorexia (80 mg BID (n=4), Gr 1/2) was 1 (25) n (%) and the Combined ocular events (80 mg BID (n=4), Gr 1/2) was 1 (25) n (%). The Combined rash (80 mg BID (n=4), Gr 1/2) was 0 (0) n (%), the Constipation (80 mg BID (n=4), Gr 1/2) was 0 (0) n (%) and the Diarrhoea (80 mg BID (n=4), Gr 1/2) was 1 (25) n (%). The Dizziness (80 mg BID (n=4), Gr 1/2) was 0 (0) n (%), the Dyspnoea (80 mg BID (n=4), Gr 1/2) was 1 (25) n (%) and the Fatigue (80 mg BID (n=4), Gr 1/2) was 1 (25) n (%). The Nausea (80 mg BID (n=4), Gr 1/2) was 1 (25) n (%), the Peripheral oedema (80 mg BID (n=4), Gr 1/2) was 2 (50) n (%) and the Pyrexia (80 mg BID (n=4), Gr 1/2) was 0 (0) n (%). For the same molecule, the Vomiting (80 mg BID (n=4), Gr 1/2) was 2 (50) n (%), the Abdominal pain (80 mg BID (n=4), Gr 3/4) was 0 (0) n (%) and the Anaemia (80 mg BID (n=4), Gr 3/4) was 0 (0) n (%). The Anorexia (80 mg BID (n=4), Gr 3/4) was 0 (0) n (%), the Combined ocular events (80 mg BID (n=4), Gr 3/4) was 1 (25) n (%) and the Combined rash (80 mg BID (n=4), Gr 3/4) was 1 (25) n (%). The Constipation (80 mg BID (n=4), Gr 3/4) was 0 (0) n (%), the Diarrhoea (80 mg BID (n=4), Gr 3/4) was 0 (0) n (%) and the Dizziness (80 mg BID (n=4), Gr 3/4) was 0 (0) n (%). The Dyspnoea (80 mg BID (n=4), Gr 3/4) was 0 (0) n (%), the Fatigue (80 mg BID (n=4), Gr 3/4) was 0 (0) n (%) and the Nausea (80 mg BID (n=4), Gr 3/4) was 0 (0) n (%). For the same molecule, the Peripheral oedema (80 mg BID (n=4), Gr 3/4) was 0 (0) n (%), the Pyrexia (80 mg BID (n=4), Gr 3/4) was 0 (0) n (%) and the Vomiting (80 mg BID (n=4), Gr 3/4) was 0 (0) n (%). The “AEs resulting in treatment discontinuation, patients” value (80 mg BID dose group) was 25%, the “AEs that resulted in dose reduction, patients” value (80 mg BID dose group) was 75% and the “Incidence of ocular events” value (80 mg BID dose group) was 50%. For the same molecule, the “Incidence of peripheral oedema” value (80 mg BID dose group) was 50%, the “Median time to onset of ocular events” value (18 patients with ocular events, range, 2–168 days) was 17 days and the “Patients who experienced grade 2 events” value [1] was 41%. For the same molecule, the “Patients who experienced grade 3 events” value [1] was 49%, the “Grade 3 abdominal pain” value (N=93) was 4% and the “Grade 3 anaemia” value (N=93) was 11%. The “Grade 3 dehydration” value (N=93) was 4%, the “Grade 4 AEs, patients” value (N=93) was 6% and the “Grade 4 anaemia” value (N=93) was 3%. For the same molecule, the “Grade 5 events” value (N=93) was “no grade 5 events”, the Abdominal pain (Total (N=93), all grades) was 20 (22) n (%) and the Anaemia (Total (N=93), all grades) was 24 (26) n (%). For the same molecule, the Anorexia (Total (N=93), all grades) was 18 (19) n (%), the Combined ocular events (Total (N=93), all grades) was 18 (19) n (%) and the Combined rash (Total (N=93), all grades) was 75 (81) n (%). The Constipation (Total (N=93), all grades) was 18 (19) n (%), the Diarrhoea (Total (N=93), all grades) was 47 (51) n (%) and the Dizziness (Total (N=93), all grades) was 14 (15) n (%). The Dyspnoea (Total (N=93), all grades) was 17 (18) n (%), the Fatigue (Total (N=93), all grades) was 40 (43) n (%) and the Nausea (Total (N=93), all grades) was 52 (56) n (%). For the same molecule, the Peripheral oedema (Total (N=93), all grades) was 43 (46) n (%), the Pyrexia (Total (N=93), all grades) was 17 (18) n (%) and the Vomiting (Total (N=93), all grades) was 48 (52) n (%). The “Diarrhoea, patients” value (all dose levels, all grades) was 51%, the “Fatigue, patients” value (all dose levels, all grades) was 43% and the “Nausea, patients” value (all dose levels, all grades) was 56%. For the same molecule, the “Ocular events (combined), patients” value (all dose levels, all grades) was 19%, the “Peripheral oedema, patients” value (all dose levels, all grades) was 46% and the “Rash (combined rash and related skin disorders), patients” value (all dose levels, all grades) was 81%. For the same molecule, the “Vomiting, patients” value (all dose levels, all grades) was 52%, the “AEs of increased blood CK, patients” value (all patients) was 13% and the “AEs of increased blood CK-MB, patients” value (all patients) was 1%. For the same molecule, the “Combined rash grade 1, patients” value (all patients) was 44%, the “Combined rash grade 2, patients” value (all patients) was 33% and the “Discontinuation due to combined rash” value (all patients) was 2%. For the same molecule, the “Discontinuation due to fatigue” value (all patients) was 3%, the “Discontinuation due to nausea” value (all patients) was 3% and the “Discontinuation due to small intestinal obstruction” value (all patients) was 2%. The “Dose modification for AEs of increased blood CK, patients” value (all patients) was 4%, the “Dose reduction due to chorioretinopathy” value (all patients) was 9% and the “Dose reduction due to combined rash” value (all patients) was 3%. The “Dose reduction due to diarrhoea” value (all patients) was 2%, the “Dose reduction due to fatigue” value (all patients) was 2% and the “Dose reduction due to increased CK” value (all patients) was 2%. The “Dose reduction due to macular oedema” value (all patients) was 2%, the “Dose reduction due to myodesopsia” value (all patients) was 2% and the “Dose reduction due to photopsia” value (all patients) was 3%. The “Dose reduction due to retinal detachment” value (all patients) was 3%, the “Dose reduction due to retinopathy” value (all patients) was 2% and the “Dose reduction due to visual impairment” value (all patients) was 2%. For the same molecule, the “Dose reduction due to vomiting” value (all patients) was 2%, the “Grade 3 ocular event of chorioretinopathy, patients” value (all patients) was 1% and the “Maximum reported SAE severity grade 2, patients” value (all patients) was 5%. For the same molecule, the “Maximum reported SAE severity grade 3, patients” value (all patients) was 22%, the “Maximum reported SAE severity grade 4, patients” value (all patients) was 3% and the “Maximum reported severity of nausea, vomiting, or diarrhoea” value (all patients) was “either grade 1 or grade 2”. The “Ocular events grade 1, patients” value (all patients) was 5%, the “Ocular events grade 2, patients” value (all patients) was 13% and the “Peripheral oedema maximum severity grade 1, patients” value (all patients) was 32%. For the same molecule, the “Peripheral oedema maximum severity grade 2, patients” value (all patients) was 14%, the “Permanent discontinuation for peripheral oedema, patients” value (all patients) was 1% and the SAE anaemia (all patients) was 4%. It also gave an SAE bacteraemia (all patients) of 2%, an SAE dehydration (all patients) of 2% and an SAE gastrointestinal haemorrhage (all patients) of 2%. For the same molecule, the SAE pneumonia (all patients) was 2%, the “SAE small intestinal obstruction” value (all patients) was 2% and the SAE ulcer haemorrhage (all patients) was 2%. The “Grade 1 venous stasis retinopathy, patients” value (all patients, led to permanent discontinuation) was 1%, the “Combined rash grade 3, patients” value (all patients, required dose modification or discontinuation) was 3% and the “Patients who died during the study or within 30 days of the last dose” value (cause of death disease progression in all) was 22%. The “Patients reporting SAEs” value (during the study or within 30 days of the last dose, all patients) was 30%, the “Increased CK, patients” value (laboratory values, all patients) was 69% and the Ocular events recovering/resolving (of patients with ocular events) was 17%. For the same molecule, the “Ocular events with complete resolution” value (of patients with ocular events) was 78%, the “Ocular events with stable retinal findings at treatment discontinuation” value (of patients with ocular events) was 6% and the “Clinically significant CK values, patients” value (shifted by ⩾3 grades from baseline and/or grade 4) was 10%.
